Source: ChEMBL document CHEMBL3044830, “Synthesis, characterization, antibacterial, antifungal, and immunomodulating activities of gatifloxacin derivatives” (Med Chem Res, 2010)

What was measured:
Citrobacter [1] = test: Antibacterial activity against Citrobacter assessed as concentration required to obtain a zone of inhibition of 10 mm after 18 to 24 hr by disk diffusion method; type: functional
Bacillus subtilis [2] = test: Antibacterial activity against Bacillus subtilis assessed as concentration required to obtain a zone of inhibition of 20 mm after 18 to 24 hr by disk diffusion method; type: functional
Shigella sp. [3] = test: Antibacterial activity against Shigella typhi assessed as zone of inhibition after 18 to 24 hr by disc diffusion method relative to gatifloxacin; type: functional
Pseudomonas aeruginosa [4] = test: Antibacterial activity against Pseudomonas aeruginosa assessed as zone of inhibition at 5 to 40 ug/ml after 18 to 24 hr by disk diffusion method relative to gatifloxacin; type: functional
Citrobacter [5] = test: Antibacterial activity against Citrobacter assessed as concentration required to obtain a zone of inhibition of 20 mm after 18 to 24 hr by disk diffusion method; type: functional
Staphylococcus aureus [6] = test: Antibacterial activity against methicillin-resistant Staphylococcus aureus assessed as zone of inhibition at 5 to 40 ug/ml after 18 to 24 hr by disk diffusion method relative to gatifloxacin; type: functional
Bacillus subtilis [7] = test: Antibacterial activity against Bacillus subtilis assessed as zone of inhibition at 5 to 40 ug/ml after 18 to 24 hr by disk diffusion method relative to gatifloxacin; type: functional
Pseudomonas aeruginosa [8] = test: Antibacterial activity against Pseudomonas aeruginosa assessed as concentration required to obtain a zone of inhibition of 5 mm after 18 to 24 hr by disk diffusion method; type: functional
Proteus mirabilis [9] = test: Antibacterial activity against Proteus mirabilis assessed as zone of inhibition at 5 to 40 ug/ml after 18 to 24 hr by disc diffusion method relative to gatifloxacin; type: functional
Klebsiella pneumoniae [10] = test: Antibacterial activity against Klebsiella pneumoniae assessed as zone of inhibition at 5 to 40 ug/ml after 18 to 24 hr by disk diffusion method relative to gatifloxacin; type: functional
Klebsiella pneumoniae [11] = test: Antibacterial activity against Klebsiella pneumoniae assessed as concentration required to obtain a zone of inhibition of 20 mm after 18 to 24 hr by disk diffusion method; type: functional
Escherichia coli [12] = test: Antibacterial activity against Escherichia coli assessed as concentration required to obtain a zone of inhibition of 20 mm after 18 to 24 hr by disk diffusion method; type: functional
Klebsiella pneumoniae [13] = test: Antibacterial activity against Klebsiella pneumoniae assessed as concentration required to obtain a zone of inhibition of 5 mm after 18 to 24 hr by disk diffusion method; type: functional
Shigella flexneri [14] = test: Antibacterial activity against Shigella flexneri assessed as concentration required to obtain a zone of inhibition of 20 mm after 18 to 24 hr by disk diffusion method; type: functional
Pseudomonas aeruginosa [15] = test: Antibacterial activity against Pseudomonas aeruginosa assessed as concentration required to obtain a zone of inhibition of 10 mm after 18 to 24 hr by disk diffusion method; type: functional
[16] = Antibacterial activity against Hofmanni bacterium assessed as concentration required to obtain a zone of inhibition of 20 mm after 18 to 24 hr by disc diffusion method
[17] = Antibacterial activity against Hofmanni bacterium assessed as zone of inhibition after 18 to 24 hr by disc diffusion method relative to gatifloxacin
Klebsiella pneumoniae [18] = test: Antibacterial activity against Klebsiella pneumoniae assessed as concentration required to obtain a zone of inhibition of 10 mm after 18 to 24 hr by disk diffusion method; type: functional
Proteus mirabilis [19] = test: Antibacterial activity against Proteus mirabilis assessed as concentration required to obtain a zone of inhibition of 20 mm after 18 to 24 hr by disc diffusion method; type: functional
[20] = Antibacterial activity against Hofmanni bacterium assessed as concentration required to obtain a zone of inhibition of 5 mm after 18 to 24 hr by disc diffusion method
Shigella sp. [21] = test: Antibacterial activity against Shigella typhi assessed as concentration required to obtain a zone of inhibition of 10 mm after 18 to 24 hr by disc diffusion method; type: functional
Staphylococcus aureus [22] = test: Antibacterial activity against methicillin-resistant Staphylococcus aureus assessed as concentration required to obtain a zone of inhibition of 20 mm after 18 to 24 hr by disk diffusion method; type: functional
Pseudomonas aeruginosa [23] = test: Antibacterial activity against Pseudomonas aeruginosa assessed as concentration required to obtain a zone of inhibition of 20 mm after 18 to 24 hr by disk diffusion method; type: functional
Escherichia coli [24] = test: Antibacterial activity against Escherichia coli assessed as zone of inhibition at 5 to 40 ug/ml after 18 to 24 hr by disk diffusion method relative to gatifloxacin; type: functional
Bacillus subtilis [25] = test: Antibacterial activity against Bacillus subtilis assessed as concentration required to obtain a zone of inhibition of 10 mm after 18 to 24 hr by disk diffusion method; type: functional
[26] = Antibacterial activity against Hofmanni bacterium assessed as concentration required to obtain a zone of inhibition of 10 mm after 18 to 24 hr by disc diffusion method
Proteus mirabilis [27] = test: Antibacterial activity against Proteus mirabilis assessed as concentration required to obtain a zone of inhibition of 5 mm after 18 to 24 hr by disc diffusion method; type: functional
Staphylococcus aureus [28] = test: Antibacterial activity against methicillin-resistant Staphylococcus aureus assessed as concentration required to obtain a zone of inhibition of 5 mm after 18 to 24 hr by disk diffusion method; type: functional
Shigella flexneri [29] = test: Antibacterial activity against Shigella flexneri assessed as zone of inhibition at 5 to 40 ug/ml after 18 to 24 hr by disk diffusion method relative to gatifloxacin; type: functional
Shigella flexneri [30] = test: Antibacterial activity against Shigella flexneri assessed as concentration required to obtain a zone of inhibition of 5 mm after 18 to 24 hr by disk diffusion method; type: functional
Proteus mirabilis [31] = test: Antibacterial activity against Proteus mirabilis assessed as concentration required to obtain a zone of inhibition of 10 mm after 18 to 24 hr by disc diffusion method; type: functional
Citrobacter [32] = test: Antibacterial activity against Citrobacter assessed as zone of inhibition at 5 to 40 ug/ml after 18 to 24 hr by disk diffusion method relative to gatifloxacin; type: functional
Escherichia coli [33] = test: Antibacterial activity against Escherichia coli assessed as concentration required to obtain a zone of inhibition of 5 mm after 18 to 24 hr by disk diffusion method; type: functional
Citrobacter [34] = test: Antibacterial activity against Citrobacter assessed as concentration required to obtain a zone of inhibition of 5 mm after 18 to 24 hr by disk diffusion method; type: functional
Shigella flexneri [35] = test: Antibacterial activity against Shigella flexneri assessed as concentration required to obtain a zone of inhibition of 10 mm after 18 to 24 hr by disk diffusion method; type: functional
Bacillus subtilis [36] = test: Antibacterial activity against Bacillus subtilis assessed as concentration required to obtain a zone of inhibition of 5 mm after 18 to 24 hr by disk diffusion method; type: functional
Escherichia coli [37] = test: Antibacterial activity against Escherichia coli assessed as concentration required to obtain a zone of inhibition of 10 mm after 18 to 24 hr by disk diffusion method; type: functional
Shigella sp. [38] = test: Antibacterial activity against Shigella typhi assessed as concentration required to obtain a zone of inhibition of 5 mm after 18 to 24 hr by disc diffusion method; type: functional

For `CO/N=C1\CN(c2nc3c(cc2F)c(=O)c(C(=O)O)cn3C2CC2)CC1CN.CS(=O)(=O)O` (stereo not drawn) [GEMIFLOXACIN MESYLATE], the Activity (Citrobacter [1]) was 9 µg/mL, the Activity (Bacillus subtilis [2]) was 8 µg/mL and the “inhibition zone (IZ)” value (Shigella sp. [3]) was 75.5%. The “inhibition zone (IZ)” value (Pseudomonas aeruginosa [4]) was 75%, the Activity (Citrobacter [5]) was 11 µg/mL and the “inhibition zone (IZ)” value (Staphylococcus aureus [6]) was 69.8%. The “inhibition zone (IZ)” value (Bacillus subtilis [7]) was 46.3%, the Activity (Pseudomonas aeruginosa [8]) was 8 µg/mL and the “inhibition zone (IZ)” value (Proteus mirabilis [9]) was 82.5%. The “inhibition zone (IZ)” value (Klebsiella pneumoniae [10]) was 84.2%, the Activity (Klebsiella pneumoniae [11]) was 12 µg/mL and the Activity (Escherichia coli [12]) was 10 µg/mL. For the same compound, the Activity (Klebsiella pneumoniae [13]) was 10 µg/mL, the Activity (Shigella flexneri [14]) was 13 µg/mL and the Activity (Pseudomonas aeruginosa [15]) was 9 µg/mL. For the same compound, the Activity [16] was 8 µg/mL, the “inhibition zone (IZ)” value [17] was 56.6% and the Activity (Klebsiella pneumoniae [18]) was 11 µg/mL. For the same compound, the Activity (Proteus mirabilis [19]) was 12 µg/mL, the Activity [20] was 5 µg/mL and the Activity (Shigella sp. [21]) was 9 µg/mL. The Activity (Staphylococcus aureus [22]) was 14 µg/mL, the Activity (Pseudomonas aeruginosa [23]) was 10 µg/mL and the “inhibition zone (IZ)” value (Escherichia coli [24]) was 75.72%. The Activity (Bacillus subtilis [25]) was 7 µg/mL, the Activity [26] was 7 µg/mL and the Activity (Proteus mirabilis [27]) was 10 µg/mL. For the same compound, the Activity (Staphylococcus aureus [28]) was 9 µg/mL, the “inhibition zone (IZ)” value (Shigella flexneri [29]) was 61.4% and the Activity (Shigella flexneri [30]) was 7 µg/mL. The Activity (Proteus mirabilis [31]) was 11 µg/mL, the “inhibition zone (IZ)” value (Citrobacter [32]) was 42.83% and the Activity (Escherichia coli [33]) was 7 µg/mL. It also gave an Activity (Citrobacter [34]) of 7 µg/mL, an Activity (Shigella flexneri [35]) of 8 µg/mL and an Activity (Bacillus subtilis [36]) of 5 µg/mL. It also gave an Activity (Escherichia coli [37]) of 9 µg/mL and an Activity (Shigella sp. [38]) of 8 µg/mL.
